Values quoted from earlier work as cited in publication PMC7395068, “The evolution of strategies to minimise the risk of human drug-induced liver injury (DILI) in drug discovery and development” (Archives of Toxicology, 2020).
Like-named read-outs stand apart in the source and are kept apart here.

Conditions: cited from earlier work
[1] = binary in vivo DILI call given beside the severity category, ref Chen 2016
[2] = human DILI concern category (LTKB DILIrank), ref Chen 2016
[3] = LTKB DILIrank category, ref Chen 2016
[4] = binary in vivo human DILI call, ref Chen 2016
[5] = human DILI, LTKB DILIrank category, ref Chen 2016
[6] = binary human DILI assignment, ref Chen 2016
[7] = binary DILI call, ref Chen 2016

CC(=O)CCCCn1c(=O)c2c(ncn2C)n(C)c1=O [pentoxifylline]
DILI +VE (5-8), DILI -VE (-4) [1]: -VE
DILI severity category [2]: Ambiguous DILI-concern

CC1=C(C(=O)O)N2C(=O)[C@@H](NC(=O)[C@H](N)c3ccc(O)cc3)[C@H]2SC1 [cefadroxil]
DILI severity category [3]: vLess-DILI-Concern

NC(=O)C(c1ccccc1)(c1ccccc1)[C@@H]1CCN(CCc2ccc3c(c2)CCO3)C1 [darifenacin]
DILI +VE (5-8), DILI -VE (-4) [4]: -VE
DILI severity category [5]: vNo-DILI-Concern

C=C1/C(=C\C=C2/CCC[C@]3(C)[C@@H]([C@H](C)/C=C/[C@H](C)C(C)C)CC[C@@H]23)C[C@@H](O)C[C@@H]1O [doxercalciferol]
DILI +VE (5-8), DILI -VE (-4) [4]: -VE
DILI severity category [5]: Ambiguous DILI-concern

mecasermin
DILI +VE (5-8), DILI -VE (-4) (in vivo): -VE
DILI severity category (in vivo): Ambiguous DILI-concern

polyethylene glycol 3350
DILI +VE (5-8), DILI -VE (-4) (in vivo): -VE
DILI severity category (in vivo): vNo-DILI-Concern

[Cl][Cu][Cl] [cupric chloride]
DILI +VE (5-8), DILI -VE (-4) (in vivo): -VE
DILI severity category (in vivo): vNo-DILI-Concern

O=C(Oc1ccccc1C(=O)O)c1ccccc1O [salsalate]
DILI +VE (5-8), DILI -VE (-4) [1]: +VE
DILI severity category [2]: vLess-DILI-Concern

CC(CN(C)C)CN1c2ccccc2CCc2ccccc21 (centres unmarked) [trimipramine]
DILI +VE (5-8), DILI -VE (-4) [1]: -VE
DILI severity category [2]: Ambiguous DILI-concern

CC=CC1=C(C(=O)O)N2C(=O)[C@@H](NC(=O)[C@H](N)c3ccc(O)cc3)[C@H]2SC1 [cefprozil]
DILI +VE (5-8), DILI -VE (-4) (in vivo): +VE
DILI severity category (in vivo): vLess-DILI-Concern

O=C(O)[C@@H](S)[C@@H](S)C(=O)O [succimer]
DILI +VE (5-8), DILI -VE (-4) [1]: +VE
DILI severity category [2]: vLess-DILI-Concern

CN1C(CSCC(F)(F)F)Nc2cc(Cl)c(S(N)(=O)=O)cc2S1(=O)=O (centres unmarked) [polythiazide]
DILI +VE (5-8), DILI -VE (-4) [1]: -VE
DILI severity category [2]: Ambiguous DILI-concern

C=CC(N)CCC(=O)O (centres unmarked) [vigabatrin]
DILI severity category [3]: Ambiguous DILI-concern
DILI +VE (5-8), DILI -VE (-4) [6]: -VE

heparin sodium
DILI +VE (5-8), DILI -VE (-4) (in vivo): +VE
DILI severity category (in vivo): vLess-DILI-Concern

N#Cc1ccc(C(c2ccc(C#N)cc2)n2cncn2)cc1 [letrozole]
DILI +VE (5-8), DILI -VE (-4) [4]: +VE
DILI severity category [5]: vLess-DILI-Concern

Nc1ccc(C(=O)NCC(=O)O)cc1 [aminohippurate]
DILI +VE (5-8), DILI -VE (-4) (in vivo): -VE
DILI severity category (in vivo): vNo-DILI-Concern

COc1cc(NCc2ccc3nc(N)nc(N)c3c2C)cc(OC)c1OC [trimetrexate]
DILI +VE (5-8), DILI -VE (-4) [1]: -VE
DILI severity category [2]: Ambiguous DILI-concern

C[C@]12CCC(=O)C=C1CC[C@@H]1[C@@H]2CC[C@@]2(C)[C@H]1CC[C@]2(C)O [methyltestosterone]
DILI +VE (5-8), DILI -VE (-4) [1]: +VE
DILI severity category [2]: vLess-DILI-Concern

COCCCOc1ccnc(C[S+]([O-])c2nc3ccccc3[nH]2)c1C (centres unmarked) [rabeprazole]
DILI +VE (5-8), DILI -VE (-4) [1]: +VE
DILI severity category [2]: vLess-DILI-Concern

COCC1=C(C(=O)O)N2C(=O)[C@@H](NC(=O)/C(=N\OC)c3csc(N)n3)[C@H]2SC1 [cefpodoxime]
DILI severity category [3]: Ambiguous DILI-concern
DILI +VE (5-8), DILI -VE (-4) [7]: -VE

NS(=O)(=O)c1cc2c(cc1C(F)(F)F)NC(Cc1ccccc1)NS2(=O)=O (centres unmarked) [bendroflumethiazide]
DILI severity category [3]: vLess-DILI-Concern

Cl.Cl.NCCNCCNCCN [trientine hydrochloride]
DILI +VE (5-8), DILI -VE (-4) (in vivo): -VE
DILI severity category (in vivo): vNo-DILI-Concern

lepirudin
DILI +VE (5-8), DILI -VE (-4) (in vivo): -VE
DILI severity category (in vivo): Ambiguous DILI-concern

C#CCN[C@@H]1CCc2ccccc21 [rasagiline]
DILI +VE (5-8), DILI -VE (-4) [1]: -VE
DILI severity category [2]: Ambiguous DILI-concern

CC(C)C[C@H]1C(=O)N2CCC[C@H]2[C@]2(O)O[C@](NC(=O)[C@@H]3C=C4c5cccc6[nH]c(Br)c(c56)C[C@H]4N(C)C3)(C(C)C)C(=O)N12 [bromocriptine]
DILI severity category [3]: vLess-DILI-Concern

C=CCC1(C(C)C#CCC)C(=O)N=C(O)N(C)C1=O (centres unmarked) [methohexital]
DILI +VE (5-8), DILI -VE (-4) [1]: -VE
DILI severity category [2]: Ambiguous DILI-concern

COc1ccc2c(C(=S)N(C)CC(=O)O)cccc2c1C(F)(F)F [tolrestat]
DILI +VE (5-8), DILI -VE (-4) [1]: +VE
DILI severity category [2]: vMost-DILI-Concern

alemtuzumab
DILI +VE (5-8), DILI -VE (-4) (in vivo): -VE
DILI severity category (in vivo): vNo-DILI-Concern

OCCN1CCN(CCCN2c3ccccc3Sc3ccc(C(F)(F)F)cc32)CC1 [fluphenazine]
DILI +VE (5-8), DILI -VE (-4) [4]: -VE
DILI severity category [5]: Ambiguous DILI-concern

N=C(N)NC(=O)Cc1c(Cl)cccc1Cl [guanfacine]
DILI +VE (5-8), DILI -VE (-4) [4]: -VE
DILI severity category [5]: Ambiguous DILI-concern

C[C@]12CC[C@@H]3c4ccc(O)cc4C[C@@H](CCCCCCCCC[S+]([O-])CCCC(F)(F)C(F)(F)F)[C@H]3[C@@H]1CC[C@@H]2O (some centres unmarked) [fulvestrant]
DILI +VE (5-8), DILI -VE (-4) [4]: -VE
DILI severity category [5]: Ambiguous DILI-concern

CCCCC[C@H](O)/C=C/[C@@H]1[C@H]2C/C(=C/CCCC(=O)O)O[C@H]2C[C@H]1O [epoprostenol]
DILI +VE (5-8), DILI -VE (-4) [4]: -VE
DILI severity category [5]: Ambiguous DILI-concern

sucralfate
DILI +VE (5-8), DILI -VE (-4) [1]: -VE
DILI severity category [2]: vNo-DILI-Concern

Cc1onc(-c2ccccc2)c1-c1ccc(S(N)(=O)=O)cc1 [valdecoxib]
DILI severity category [3]: vLess-DILI-Concern
DILI +VE (5-8), DILI -VE (-4) [6]: +VE

teriparatide
DILI +VE (5-8), DILI -VE (-4) (in vivo): -VE
DILI severity category (in vivo): vNo-DILI-Concern

galsulfase
DILI +VE (5-8), DILI -VE (-4) (in vivo): -VE
DILI severity category (in vivo): vNo-DILI-Concern

CCO[C@@H]1OC(=O)C[C@@H]1NC(=O)[C@@H]1CCCN2C(=O)CC[C@H](NC(=O)c3nccc4ccccc34)C(=O)N12 [pralnacasan]
DILI +VE (5-8), DILI -VE (-4) [1]: +VE
DILI severity category [2]: vMost-DILI-Concern

Nc1ncn([C@@H]2O[C@H](CO)[C@@H](O)[C@H]2O)c(=O)n1 [azacitidine]
DILI severity category [3]: Ambiguous DILI-concern
DILI +VE (5-8), DILI -VE (-4) [7]: -VE

CCN(CC)CCN1C(=O)CN=C(c2ccccc2F)c2cc(Cl)ccc21 [flurazepam]
DILI +VE (5-8), DILI -VE (-4) [4]: +VE
DILI severity category [5]: vLess-DILI-Concern

NC(CO)(CO)CO [tromethamine]
DILI severity category [3]: Ambiguous DILI-concern
DILI +VE (5-8), DILI -VE (-4) [6]: -VE

Cc1c(OCC(F)(F)F)ccnc1C[S@@+]([O-])c1nc2ccccc2[nH]1 [dexlansoprazole]
DILI +VE (5-8), DILI -VE (-4) [4]: +VE
DILI severity category [5]: vLess-DILI-Concern

CN(C)CC[C@@H](c1ccc(Cl)cc1)c1ccccn1 [dexchlorpheniramine]
DILI +VE (5-8), DILI -VE (-4) [4]: -VE
DILI severity category [5]: vNo-DILI-Concern

CCCCCCCN(CC)CCCC(O)c1ccc(NS(C)(=O)=O)cc1 (centres unmarked) [ibutilide]
DILI +VE (5-8), DILI -VE (-4) (in vivo): -VE
DILI severity category (in vivo): vNo-DILI-Concern
